Data from patent US20220220152A1, “BIVALENT ANTAGONISTS OF INHIBITORS OF APOPTOSIS PROTEINS” (Hepagene Therapeutics (HK) Limited, priority 2019, published 2022).

Tests used:
[1] = target: T1, XIAP-BIR3 (Homo sapiens, UniProt P98170); experiment: XIAP-BIR3 fluorescence polarization binding assay; conditions: FP, probe AbuRPFK-5FAM (SM5F) 5 nM, XIAP-BIR3 40 nM, 60 min at 25° C.
T1 construct: XIAP-BIR3; purchased Reaction Biology APT-11-374
Method in brief: (§1)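 Fluorescence polarization competition using 5-carboxyfluorescein-labelled peptide probe AbuRPFK-5FAM; protein and compound preincubated 15 min, probe added, then 60 min at 25° C.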

[2] = target: T2, cIAP1-BIR3 (Homo sapiens, UniProt Q13490); experiment: cIAP1-BIR3 fluorescence polarization binding assay; conditions: FP, probe AbuRPFK-5FAM (SM5F) 5 nM, cIAP1-BIR3 15 nM, 60 min at 25° C.
T2 construct: cIAP1-BIR3; purchased Reaction Biology APT-11-370
T2 sequence (Q13490 253-363 limits assumed): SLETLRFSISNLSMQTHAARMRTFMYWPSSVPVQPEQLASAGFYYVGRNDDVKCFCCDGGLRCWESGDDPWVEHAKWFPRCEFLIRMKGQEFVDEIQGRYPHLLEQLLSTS
Method in brief: as §1

[3] = target: T3, cIAP2-BIR3 (Homo sapiens, UniProt Q13489); experiment: cIAP2-BIR3 fluorescence polarization binding assay; conditions: FP, probe AbuRPFK-5FAM (SM5F) 5 nM, cIAP2-BIR3 80 nM, 60 min at 25° C.
T3 construct: cIAP2-BIR3; purchased Reaction Biology APT-11-372
T3 sequence (Q13489 238-349 limits assumed): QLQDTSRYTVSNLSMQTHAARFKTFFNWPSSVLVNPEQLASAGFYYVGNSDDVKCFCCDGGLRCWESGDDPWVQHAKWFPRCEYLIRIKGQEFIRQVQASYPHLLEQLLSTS
Method in brief: as §1

T1 sequence (P98170 241-356 limits assumed): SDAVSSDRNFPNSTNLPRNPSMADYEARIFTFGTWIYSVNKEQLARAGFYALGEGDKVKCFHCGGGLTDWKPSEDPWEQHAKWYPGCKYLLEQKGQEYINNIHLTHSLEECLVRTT

## CN[C@@H](C)C(=O)N[C@H](C(=O)N1CCC[C@H]1C(=O)N[C@@H]1CCc2c(OCCOCCOc3cccc4c3CC[C@H]4NC(=O)[C@@H]3CCCN3C(=O)[C@@H](NC(=O)[C@H](C)NC)C3CCCCC3)cccc21)C1CCCCC1 [Compound II-F, (2S)-1-[(2S)-2-cyclohexyl-2-[(2S)-2-(methylamino)propanamido]acetyl]-N-[(1R)-4-[2-(2-[[(1R)-1-[(2S)-1-[(2S)-2-cyclohexyl-2-[(2S)-2-(methylamino)propanamido]acetyl]pyrrolidine-2-amido]-2,3-dihydro-1H-inden-4-yl]oxy]ethoxy)ethoxy]-2,3-dihydro-1H-inden-1-yl]pyrrolidine-2-carboxamide]
[1]
  IC50: 10 to 100 nM
[2]
  IC50: 1 to 10 nM
[3]
  IC50: 10 to 100 nM

## CN[C@@H](C)C(=O)N[C@H](C(=O)N1CCC[C@H]1C(=O)N[C@@H]1CCCc2c(-c3cccc(-c4cccc5c4CCC[C@H]5NC(=O)[C@@H]4CCCN4C(=O)[C@@H](NC(=O)[C@H](C)NC)C4CCCCC4)c3)cccc21)C1CCCCC1 [III-A, (2S)-1-[(2S)-2-Cyclohexyl-2-[(2S)-2-(methylamino)propanamido]acetyl]-N-[(1R)-5-(3-[(5R)-5-[(2S)-1-[(2S)-2-cyclohexyl-2-[(2S)-2-(methylamino)propanamido]acetyl]pyrolidine-2-amido]-5,6,7,8-tetrahydronaphthalen-1-yl]phenyl)-1,2,3,4-tetrahydronaphthalen-1-yl]pyrrolidine-2-carboxamide]
[1]
  IC50: 10 to 100 nM
[2]
  IC50: 1 to 10 nM
[3]
  IC50: 10 to 100 nM

## CN[C@@H](C)C(=O)N[C@H](C(=O)N1CCC[C@@H]1C(=O)N[C@@H]1CCCc2ccc(-c3ccc(-c4ccc5c(c4)[C@H](NC(=O)[C@@H]4CCCN4C(=O)[C@@H](NC(=O)[C@H](C)NC)C4CCCCC4)CCC5)cc3)cc21)C1CCCCC1 [Compound III-M, (2S)-1-[(2S)-2-cyclohexyl-2-[(2S)-2-(methylamino)propanamido]acetyl]-N-[(1R)-7-[4-[(8R)-8-[(2R)-1-[(2S)-2-cyclohexyl-2-[(2S)-2-(methylamino)propanamido]acetyl]pyrrolidine-2-amido]-5,6,7,8-tetrahydronaphthalen-2-yl]phenyl]-1,2,3,4-tetrahydronaphthalen-1-yl]pyrrolidine-2-carboxamide]
[1]
  IC50: > 1000 nM
[2]
  IC50: 10 to 100 nM
[3]
  IC50: 100 to 1000 nM

## CN[C@@H](C)C(=O)N[C@H](C(=O)N1CCC[C@H]1C(=O)N[C@@H]1CCCc2c(-c3cccc4c3CCC[C@H]4NC(=O)[C@@H]3CCCN3C(=O)[C@@H](NC(=O)[C@H](C)NC)C(C)(C)C)cccc21)C(C)(C)C [Compound V-J, (2S)-1-[(2S)-3,3-dimethyl-2-[(2S)-2-(methylamino)propanamido]butanoyl]-N-[(5R,5′R)-5′-[(2S)-[(2S)-3,3-dimethyl-2-[(2S)-2-(methylamino)propanamido]butanoyl]pyrolidine-2-amido]-5H,5′ H,6H,6′H,7H,7′H,8H,8′ H-[1,1′-binaphthalen]-5-yl]pyrrolidine-2-carboxamide]
[1]
  IC50: 10 to 100 nM
[2]
  IC50: 1 to 10 nM
[3]
  IC50: 10 to 100 nM

## CN[C@@H](C)C(=O)N[C@H](C(=O)N1CCC[C@H]1C(=O)N[C@@H]1CCCc2c(-c3cccc(-c4cccc5c4CCC[C@H]5NC(=O)[C@@H]4CCCN4C(=O)[C@@H](NC(=O)[C@H](C)NC)C(C)C)c3)cccc21)C(C)C [Compound III-E, (2S)-1-[(2S)-3-methyl-2-[(2S)-2-(methylamino)propanamido]butanoyl]-N-[(1R)-5-[3-[(5R)-5-[(2S)-1-[(2S)-3-methyl-2-[(2S)-2-(methylamino)propanamido]butanoyl]pyrrolidine-2-amido]-5,6,7,8-tetrahydronaphthalen-1-yl]phenyl]-1,2,3,4-tetrahydronaphthalen-1-yl]pyrrolidine-2-carboxamide]
[1]
  IC50: 1 to 10 nM
[2]
  IC50: 1 to 10 nM
[3]
  IC50: 10 to 100 nM

## CN[C@@H](C)C(=O)N[C@@H](C)C(=O)N1CCC[C@H]1C(=O)N[C@@H]1CCOc2c(-c3cccc4c3OCC[C@H]4NC(=O)[C@@H]3CCCN3C(=O)[C@H](C)NC(=O)[C@H](C)NC)cccc21 [Compound V-A, (2S)-1-[(2S)-2-[(2S)-2-(methylamino)propanamido]propanoyl]-N-[(4R)-8-[(4R)-4-[(2S)-1-[(2S)-2-[(2S)-2-(methylamino)propanamido]propanoyl]pyrrolidine-2-amido]-3,4-dihydro-2H-1-benzopyran-8-yl]-3,4-dihydro-2H-1-benzopyran-4-yl]pyrrolidine-2-carboxamide]
[1]
  IC50: 100 to 1000 nM
[2]
  IC50: 1 to 10 nM
[3]
  IC50: 10 to 100 nM

## CN[C@@H](C)C(=O)N[C@H](C(=O)N1CCC[C@H]1C(=O)N[C@@H]1CCc2c(-c3cccc4c3CC[C@H]4NC(=O)[C@@H]3CCCN3C(=O)[C@@H](NC(=O)[C@H](C)NC)C(C)C)cccc21)C(C)C [Compound V-G, (2S)-1-[(2S)-3-methyl-2-[(2S)-2-(methylamino)propanamido]butanoyl]-N-[(1R,1′R)-1′-[(2S)-1-[(2S)-3-methyl-2-[(2S)-2-(methylamino)propanamido]butanoyl]pyrrolidine-2-amido]-1H,1′H,2H,2′H,3H,3′H-[4,4′-biinden]-1-yl]pyrrolidine-2-carboxamide]
[1]
  IC50: 10 to 100 nM
[2]
  IC50: 1 to 10 nM
[3]
  IC50: 10 to 100 nM

## CN[C@@H](C)C(=O)N[C@H](C(=O)N1CCC[C@H]1C(=O)N[C@@H]1CCCc2c(OCCN3CCN(CCOc4cccc5c4CCC[C@H]5NC(=O)[C@@H]4CCCN4C(=O)[C@@H](NC(=O)[C@H](C)NC)C4CCCCC4)CC3)cccc21)C1CCCCC1 [Compound IX, (2S)-1-[(2S)-2-cyclohexyl-2-[(2S)-2-(methylamino)propanamido]acetyl]-N-[(1R)-5-{2-[4-(2-{[(5R)-5-[(2S)-1-[(2S)-2-cyclohexyl-2-[(2S)-2-(methylamino)propanamido]acetyl]pyrolidine-2-amido]-5,6,7,8-tetrahydronaphthalen-1-yl]oxy}ethyl)piperazin-1-yl]ethoxy}-1,2,3,4-tetrahydmnaphthalen-1-yl]pyrrolidine-2-carboxamide]
[1]
  IC50: 100 to 1000 nM
[2]
  IC50: 1 to 10 nM
[3]
  IC50: 10 to 100 nM

## CN[C@@H](C)C(=O)N[C@H](C(=O)N1CCC[C@H]1C(=O)N[C@@H]1CCCc2c(-c3ccc(-c4cccc5c4CCC[C@H]5NC(=O)[C@@H]4CCCN4C(=O)[C@@H](NC(=O)[C@H](C)NC)C(C)(C)C)cc3)cccc21)C(C)(C)C [Compound III-J, (2S)-1-[(2S)-3,3-dimethyl-2-[(2S)-2-(methylamino)propanamido]butanoyl]-N-[(1R)-5-[4-[(5R)-5-[(2S)-[-(2S)-3,3-dimethyl-2-[(2S)-2-(methylamino)propanamido]butanoyl]pyrrolidine-2-amido]-5,6,7,8-tetrahydronaphthalen-1-yl]phenyl]-1,2,3,4-tetrahydronaphthalen-1-yl]pyrrolidine-2-carboxamide]
[1]
  IC50: 10 to 100 nM
[2]
  IC50: 1 to 10 nM
[3]
  IC50: 1 to 10 nM

## CN[C@@H](C)C(=O)N[C@H](C(=O)N1CCC[C@H]1C(=O)N[C@@H]1CCCc2c(-c3ccc(-c4cccc5c4CCC[C@H]5NC(=O)[C@@H]4CCCN4C(=O)[C@@H](NC(=O)[C@H](C)NC)C(C)C)cc3)cccc21)C(C)C [III-N, (2S)-1-[(2S)-3-methyl-2-[(2S)-2-(methylamino)propanamido]butanoyl]-N-[(1R)-5-[4-[(5R)-5-[(2S)-1-[(2S)-3-methyl-2-[(2S)-2-(methylamino)propanamido]butanoyl]pyrolidine-2-amido]-5,6,7,8-tetrahydronaphthalen-1-yl]phenyl]-1,2,3,4-tetrahydronaphthalen-1-yl]pyrrolidine-2-carboxamide]
[1]
  IC50: 10 to 100 nM
[2]
  IC50: 1 to 10 nM
[3]
  IC50: 10 to 100 nM
